Measured values from patent US20150315188A1, “COMPOUNDS AND METHODS FOR TREATMENT OF HYPERTENSION” (MEDIVATION TECHNOLOGIES, INC., priority 2012, published 2015).

Assays:
Parameters in all cases: purchased Milipore (Millipore)
[1] = biological target: T1, Human adrenergic α2B receptor (Homo sapiens, UniProt P18089); assay: Radioligand binding, adrenergic α2B (Protocol Group B); settings: Protocol Group B; for Percentage inhibition of ligand binding, Adrenergic α2B (30 nM): 0.03 µM; for Percentage inhibition of ligand binding, Adrenergic α2B (10 nM): 10 nM compound, 0.01 µM; for Percentage inhibition of ligand binding, Adrenergic α2B (0.1 μM): 0.1 μM compound
T1 sequence (P18089 1-450): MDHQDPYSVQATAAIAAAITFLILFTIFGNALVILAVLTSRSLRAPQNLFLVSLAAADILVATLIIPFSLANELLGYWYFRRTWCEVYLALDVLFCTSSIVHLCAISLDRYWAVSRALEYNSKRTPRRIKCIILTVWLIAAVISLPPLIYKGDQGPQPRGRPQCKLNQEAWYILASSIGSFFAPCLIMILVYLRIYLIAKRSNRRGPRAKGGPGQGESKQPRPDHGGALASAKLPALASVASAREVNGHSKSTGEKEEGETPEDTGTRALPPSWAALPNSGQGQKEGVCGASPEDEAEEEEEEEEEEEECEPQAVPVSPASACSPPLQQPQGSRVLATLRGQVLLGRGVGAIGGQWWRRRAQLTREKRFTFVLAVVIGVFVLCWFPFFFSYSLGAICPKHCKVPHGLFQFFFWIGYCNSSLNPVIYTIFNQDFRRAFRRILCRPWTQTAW
In short: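 Compounds at various concentrations in 1% DMSO were tested on recombinant membranes in Tris-HCl pH 7.4 buffer containing MgCl2, CaCl2 and 0.2% BSA.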

[2] = biological target: T2, Human adrenergic α2A receptor (Homo sapiens, UniProt P08913); assay: Radioligand binding, adrenergic α2A (Protocol Group B); settings: Protocol Group B; for Percentage inhibition of ligand binding, Adrenergic α2A (0.1 μM): 0.1 μM compound
T2 sequence (P08913 1-465): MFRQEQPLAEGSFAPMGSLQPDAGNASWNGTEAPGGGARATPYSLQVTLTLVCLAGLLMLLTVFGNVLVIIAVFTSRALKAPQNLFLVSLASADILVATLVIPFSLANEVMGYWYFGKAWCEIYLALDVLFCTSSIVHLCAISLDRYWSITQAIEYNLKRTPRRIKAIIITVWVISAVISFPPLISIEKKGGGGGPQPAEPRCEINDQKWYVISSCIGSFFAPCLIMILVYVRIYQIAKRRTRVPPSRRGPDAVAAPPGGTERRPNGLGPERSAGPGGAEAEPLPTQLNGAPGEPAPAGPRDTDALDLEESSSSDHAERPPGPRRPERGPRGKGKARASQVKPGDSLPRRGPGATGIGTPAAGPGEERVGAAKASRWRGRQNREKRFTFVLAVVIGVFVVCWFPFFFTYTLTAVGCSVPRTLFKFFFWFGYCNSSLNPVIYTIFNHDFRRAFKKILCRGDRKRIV
In short: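 Compounds (1% DMSO vehicle, various concentrations) competed against 2 nM [^3H]MK-912 on recombinant receptor membranes for 60 min at 25° C, Tris-HCl pH 7.4 buffer with Mg2+, Ca2+, BSA. Bound radioligand filtered and counted; 10 μM rauwolscine set nonspecific binding. Values: percent inhibition of specific binding or estimated Ki.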

[3] = biological target: T3, Human adrenergic α1B receptor (Homo sapiens, UniProt P35368); assay: Radioligand binding, adrenergic α1B (Protocol Group B); settings: Protocol Group B; for Percentage inhibition of ligand binding, Adrenergic α1B (0.1 μM): 0.1 μM compound
T3 sequence (P35368 1-520): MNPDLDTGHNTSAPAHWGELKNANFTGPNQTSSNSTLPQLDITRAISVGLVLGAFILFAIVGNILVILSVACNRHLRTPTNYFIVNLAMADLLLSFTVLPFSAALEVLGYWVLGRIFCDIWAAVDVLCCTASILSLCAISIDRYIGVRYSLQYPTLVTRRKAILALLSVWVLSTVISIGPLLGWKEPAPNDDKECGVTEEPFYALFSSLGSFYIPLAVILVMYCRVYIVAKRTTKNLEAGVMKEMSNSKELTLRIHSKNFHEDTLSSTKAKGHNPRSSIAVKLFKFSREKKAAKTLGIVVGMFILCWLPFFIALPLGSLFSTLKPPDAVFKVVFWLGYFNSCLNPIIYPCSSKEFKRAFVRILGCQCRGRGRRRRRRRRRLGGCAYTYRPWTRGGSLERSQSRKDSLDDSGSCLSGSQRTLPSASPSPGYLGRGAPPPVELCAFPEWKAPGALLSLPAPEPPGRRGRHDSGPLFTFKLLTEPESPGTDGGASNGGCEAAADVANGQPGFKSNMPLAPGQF
In short: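 Values are percent inhibition of specific [3H]prazosin (0.3 nM) binding or estimated Ki, from filtration counting. Human α1B recombinant membranes, Tris-HCl pH 7.4 buffer with MgCl2 and EDTA, 60 min at 25 °C, 1% DMSO vehicle; 10 μM prazosin defined nonspecific binding.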

Row | Structure (SMILES) | Percentage inhibition of ligand binding, Adrenergic α2B (30 nM) ([1]; 30 nM compound) [%] | Percentage inhibition of ligand binding, Adrenergic α2A (0.1 μM) [2] [%] | Percentage inhibition of ligand binding, Adrenergic α1B (0.1 μM) [3] [%] | inhibition at 0.03 µM ([1]; 30 nM compound, read-out: Percentage inhibition of ligand binding, Adrenergic α2B (30 nM)) [%] | Percentage inhibition of ligand binding, Adrenergic α2B (10 nM) [1] [%] | Percentage inhibition of ligand binding, Adrenergic α2B (0.1 μM) [1] [%] | Percentage inhibition of ligand binding, Adrenergic α2A (0.3 μM) ([2]; 0.3 μM compound) [%] | Percentage inhibition of ligand binding, Adrenergic α1B (0.3 μM) ([3]; 0.3 μM compound) [%] | inhibition at 0.3 µM ([2]; 0.3 μM compound, read-out: Percentage inhibition of ligand binding, Adrenergic α2A (0.3 μM)) [%] | inhibition at 0.3 µM ([3]; 0.3 μM compound, read-out: Percentage inhibition of ligand binding, Adrenergic α1B (0.3 μM)) [%]
1 | OC(Cn1c2c(c3cc(Cl)ccc31)C1CCCN1CC2)c1ccncc1 (single isomer, unassigned) [143c] | 5 | 1 | 9 | – | – | – | – | – | – | –
2 | Cc1cc(Br)c2c(c1)c1c(n2CC(O)c2ccncc2)CCN2CCCC12 (single isomer, unassigned) [145a] | – | 39 | 46 | 84 | – | – | – | – | – | –
3 | Cc1ccc2c(c1)c1c(n2CC(OC(N)=O)c2ccncc2)CCN(C)C1 (single isomer, unassigned) [8a] | 21 | 20 | 18 | – | 12 | 48 | 14 | 22 | – | –
4 | Cc1ccc2c(c1)c1c(n2CC(C)(O)c2cccnc2)CC2CCCN2C1 (stereo not drawn) [41c] | −10 | −12 | 1 | – | −8 | 0 | 1 | −5 | – | –
5 | Cc1cc(F)c2c(c1)c1c(n2CC(C)(O)c2cccnc2)CCN2CCCC12 (single isomer, unassigned) [79c] | 7 | −3 | 1 | – | −6 | – | −1 | 6 | – | –
6 | Cc1ccc2c(c1)c1c(n2CC(C)(O)c2cccnc2)CC2CCCN2C1 (stereo not drawn) [38d] | 14 | −4 | 1 | – | 1 | 22 | 3 | 12 | – | –
7 | Cc1cc(F)cc2c3c(n(CC(C)(O)c4ccncc4)c12)CCN1CCCC31 (single isomer, unassigned) [77b] | 12 | 5 | −3 | – | 6 | – | 9 | 14 | – | –
8 | CC(O)(Cn1c2c(c3cc(F)cc(Cl)c31)C1CCCN1CC2)c1cccnc1 (single isomer, unassigned) [89a] | −9 | 23 | 12 | – | −9 | – | – | – | 9 | 13
